Test results taken from patent US20230203060A1 (GENFLEET THERAPEUTICS (SHANGHAI) INC., priority 2020, published 2023).

Assays:
[1] = tested on: A549 cells (KRAS G12S mutant); assay: Cell proliferation inhibition experiment, 3D spheroid, CellTiter-Glo, A549; type: cell-based, human; conditions: Homo sapiens, A549, 120 h, A549 (KRAS G12S mutant) 3D spheroid, 5 days with compound, CellTiter-Glo; read-out: A549 IC50
Outline: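 Cells seeded in 2% FBS medium in spheroid plates (800 H358 or 400 A549 per well), grown overnight to form 3D spheroids, then exposed to 3.16-fold compound dilutions (0.1% DMSO) for 5 days. CellTiter-Glo luminescence gave inhibition vs DMSO and medium blanks; IC50 by four-parameter fit.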

[2] = tested on: KRAS G12C mutant MIA PaCa-2 cells; assay: Cell proliferation inhibition experiment, 3D spheroid, CellTiter-Glo, MIA PaCa-2; type: cell-based, human; conditions: Homo sapiens, MIA PaCa-2, 120 h, 3D cell model in 384-well spheroid plate, 5 days, CellTiter-Glo; read-out: MIA-PaCa2 IC50
Outline: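 200 MIA PaCa-2 cells/well grown overnight as 3D spheroids, then exposed to 3.16-fold compound dilutions (0.1% DMSO final) for 5 days. Viability read by CellTiter-Glo luminescence; inhibition calculated against DMSO and medium-only controls, and IC50 fitted by four-parameter model.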

Compound	IC50 [1] [nM]	IC50 [2] [nM]
C=CC(=O)N1CCN2C(=O)c3c(N[C@H](C)c4ccccc4)nc(-c4c(O)cccc4F)c(Cl)c3OC[C@H]2C1 [Z28, (6aR)-8-acryloyl-4-chloro-3-(2-fluoro-6-hydroxyphenyl)-1-(((R)-1-phenylethyl)amino)-6,6a,7,8,9,10-hexahydro-12H-pyrazino[2,1-c]pyrido[3,4-f][1,4]oxazepin-12-one]	> 5000	150
C=CC(=O)N1CCN2C(=O)c3c(N4CCOC[C@@H]4C)nc(-c4c(O)cccc4F)c(Cl)c3OC[C@H]2C1 [Z32]	> 5000	11
C=CC(=O)N1CCN2C(=O)c3c(N4CCC5CC54)nc(-c4c(O)cccc4F)c(Cl)c3OC[C@H]2C1 (stereo partly drawn) [Z39, (6aR)-8-acryloyl-1-(2-azabicyclo[3.1.0]hexart-2-yl)-4-chloro-3-(2-fluoro-6-hydroxyphenyl)-6,6a,7,8,9,10-hexahydro-12H-pyrazino[2,1-c]pyrido[3,4-f][1,4]oxazepin-12-one]	3050	20
C=CC(=O)N1CCN2C(=O)c3c(NC45CC(C4)C5)nc(-c4c(O)cccc4F)c(Cl)c3OC[C@H]2C1 [Z41, (6aR)-8-acryloyl-1-(bicyclo [1.1.1]pentan-1-ylamino)-4-chloro-3-(2-fluoro-6-hydroxyphenyl)-6,6a,7,8,9,10-hexahydro-12H-pyrazino[2,1-c]pyrido[3,4-f][1,4]oxazepin-12-one]	1220	73
C=CC(=O)N1CCN2C(=O)c3c(OC4CCCN(C)C4)nc(-c4c(O)cccc4F)c(Cl)c3OC[C@H]2C1 (stereo partly drawn) [Z43, (6aR)-8-acryloyl-4-chloro-3-(2-fluoro-6-hydroxyphenyl)-1-((1-methylpiperidin-3-yl)oxy)-6,6a,7,8,9,10-hexahydro-12H-pyrazino[2,1-c]pyrido[3,4-f][1,4]oxazepin-12-one]	> 30000	34
C=CC(=O)N1CCN2C(=O)c3c(N4CCC[C@H]4C)nc(-c4c(O)cccc4F)c(Cl)c3OC[C@H]2C1 [Z48, (6aR)-8-acryloyl-1-((R)-2-methylpyrrolidin-1-yl)-4-chloro-3-(2-fluoro-6-hydroxyphenyl)-6,6a,7,8,9,10-hexahydro-12H-pyrazino[2,1-c]pyrido[3,4-f][1,4]oxazepin-12-one]	> 5000	28
C=CC(=O)N1CCN2C(=O)c3c(N4CCC[C@@H]4C)nc(-c4c(O)cccc4F)c(Cl)c3OC[C@H]2C1 [Z49, (6aR)-8-acryloyl-1-((S)-2-methylpyrrolidin-1-yl)-4-chloro-3-(2-fluoro-6-hydroxyphenyl)-6,6a,7,8,9,10-hexahydro-12H-pyrazino[2,1-c]pyrido[3,4-f][1,4]oxazepin-12-one]	> 5000	7
C=CC(=O)N1CCN2C(=O)c3c(N4CCN(C)C[C@@H]4C)nc(-c4c(O)cccc4F)c(Cl)c3OC[C@H]2C1 [Z51, (6aR)-8-acryloyl-4-chloro-1-((S)-2,4-dimethylpiperazin-1-yl)-3-(2-fluoro-6-hydroxyphenyl)-6,6a,7,8,9,10-hexahydro-12H-pyrazino[2,1-c]pyrido[3,4-f][1,4]oxazepin-12-one]	> 5000	7
C=CC(=O)N1CCN2C(=O)c3c(N4CCCC45CC5)nc(-c4c(O)cccc4F)c(Cl)c3OC[C@H]2C1 [Z56, (6aR)-8-acryloyl-4-chloro-3-(2-fluoro-6-hydroxyphenyl)-1-(4-azaspiro[2.4]heptan-4-yl)-6,6a,7,8,9,10-hexahydro-12H-pyrazino[2,1-c]pyrido[3,4-f][1,4]oxazepin-12-one]	> 7000	71
C=CC(=O)N1CCN2C(=O)c3c(N4CCN(C)C[C@@H]4C)nc(-c4c(F)cccc4OC)c(F)c3OC[C@H]2C1 [Z451, (6aR)-8-acryloyl-1-((S)-2,4-dimethylpiperazin-1-yl)-4-fluoro-3-(2-fluoro-6-methoxyphenyl)-6,6 a,7,8,9,10-hexahydro-12H-pyrazino[2,1-c]pyrido[3,4-f][1,4]oxazepin-12 (6 aH)-one]	5720	363
C=CC(=O)N1CCN2C(=O)c3c(N4CCN(C)C[C@@H]4C)nc(-c4c(O)cccc4Cl)c(Cl)c3OC[C@H]2C1 [Z452, (6aR)-8-acryloyl-4-chloro-3-(2-chloro-6-hydroxyphenyl)-1-((S)-2,4-dimethylpiperazin-1-yl)-6,6a,7,8,9,10-hexahydro-12H-pyrazino[2,1-c]pyrido[3,4-f][1,4]oxazepin-12-one]	8990	11.2

Other lines, results leading:

IC50 [1] [nM]	IC50 [2] [nM]	Compound
6180	16	C=CC(=O)N1CCN2C(=O)c3c(N4C[C@@H](N(C)CC(F)F)CC4(C)C)nc(-c4ccccc4F)c(Cl)c3OC[C@H]2C1 (single isomer, unassigned) [Z659-1]
2660	4	C=CC(=O)N1CCN2C(=O)c3c(N4CC(N(C)CC(F)F)CC4(C)C)nc(-c4ccccc4F)c(Cl)c3OCC2C1 (single isomer, unassigned) [Z659-2]
3250	7.7	C=CC(=O)N1CCN2C(=O)c3c(N4C[C@@H](N(C)CCF)CC4(C)C)nc(-c4ccccc4F)c(Cl)c3OC[C@H]2C1 (single isomer, unassigned) [Z660-1]
2900	14	C=CC(=O)N1CCN2C(=O)c3c(N4C[C@@H](NC)CC4(C)C)nc(-c4ccccc4F)c(Cl)c3OC[C@H]2C1 (single isomer, unassigned) [Z661-1]
4090	11	C=CC(=O)N1CCN2C(=O)c3c(N4C[C@@H](NCC(F)(F)F)CC4(C)C)nc(-c4ccccc4F)c(Cl)c3OC[C@H]2C1 (single isomer, unassigned) [Z662-1]
> 30000	12	C=CC(=O)N1CCN2C(=O)c3c(N4CCOC(C)(C)C4)nc(-c4c(O)cccc4F)c(Cl)c3OC[C@H]2C1 [Z37, (6aR)-8-acryloyl-4-chloro-1-(2,2-dimethylmorpholino)-3-(2-fluoro-6-hydroxyphenyl)-6,6a,7,8,9,10-hexahydro-12H-pyrazino[2,1-c]pyrido[3,4-f][1,4]oxazepin-12-one]
> 5000	2	C=CC(=O)N1CCN2C(=O)c3c(N4CC(O)CC4(C)C)nc(-c4c(O)cccc4F)c(Cl)c3OC[C@H]2C1 (stereo partly drawn) [Z50, (6aR)-8-amyloyl-4-chloro-3-(2-fluoro-6-hydroxyphenyl)-1-(4-hydroxy-2,2-dimethylpyrrolidin-1-yl)-6,6a,7,8,9,10-hexahydro-12H-pyrazino[2,1-c]pyrido[3,4-f][1,4]oxazepin-12-one]
9160	39	C=CC(=O)N1CCN2C(=O)c3c(N4CCN(C)C[C@@H]4C)nc(-c4ccccc4F)c(Cl)c3OC[C@H]2C1 [Z407-1, (R)-8-acryloyl-4-chloro-1-((S)-2,4-dimethylpiperazin-1-yl)-3-(2-fluorophenyl)-6,6a,7,8,9,10-hexahydro-12H-pyrazino[2,1-c]pyrido[3,4-f][1,4]oxazepin-12-one]
8890	126	C=CC(=O)N1CCN2C(=O)c3c(N4CC(O)CC4(C)C)nc(-c4ccccc4Cl)c(F)c3OC[C@H]2C1 (stereo partly drawn) [Z414-1, (6aR)-8-acryloyl-3-(2-chlorophenyl)-4-fluoro-1-(4-hydroxy-2,2-dimethylpyrrolidin-1-yl)-6,6a,7,8,9,10-hexahydro-12H-pyrazino[2,1-c]pyrido[3,4-f][1,4]oxazepin-12-one]
